According to PMC5078989, “Targeted inhibition of the COP9 signalosome for treatment of cancer” (Nature Communications, 2016):

Tested on: HCT116 cells
Experiment: Immunoblotting of cullins, CRL components and substrates in HCT116 cells
Assay type: cell-based, human
Experimental: Figure 2 CSN5 inhibition results in the inactivation of a subset of CRLs and the stabilization of their substrates. Effect on CRL components and substrates after treatment of HCT116 cells with either 1 μM MLN4924 or 1 μM CSN5i-3. (a) Immunoblottings for Cul1 and its CRL components Rbx and Skp1; (b) for cullins Cul2, Cul3 and Cul4A; (c) for F-box protein Skp2 and the SCF^Skp2 substrates p21 and p27; (d) for F-box proteins Fbxo22 and Fbxo30; (e) for F-box protein βTrCP and the SCF^βTrCP substrates Wee1 and pIκBα; (f) for the adaptor KEAP1 and the Cul3^KEAP1 substrate Nrf2; (g) for F-box proteins Fbxw7 and Fbxo3.
Cells were maintained in a humidified incubator at 37 °C and 5% CO2. HCT116 cells (ATCC #CCL-247) were grown in McCoy's 5A medium (GIBCO #16600–082) supplemented with 10% fetal bovine serum (FBS), TE-1 (RIKEN BioResource Center, #RCB1894), NCI-H2030 (ATCC #CRL-591), SU-DHL-1 (DMSZ #ACC 356), NOMO-1 (HSRRB #IFO50474) and NCIH196 cells (ATCC, #CRL-5823) in RPMI-1640 medium (GIBCO#61870–010) supplemented with 10% FBS, 10 mM HEPES, 1 mM sodium pyruvate and THP-1 cells (ATCC #TIB-202) with additional 0.05 mM 2-mercaptoethanol. DMS273 cells (ECACC #950628) were cultured in Waymouth's MB 752/1 medium (GIBCO#11220–035) supplemented with 10% FBS. All cells were negatively tested for mycoplasma contamination either by the vendor or in house. For treatment with compounds, sub-confluent cells were either treated with inhibitors at the indicated concentrations or mock treated with an equivalent amount of DMSO (final content 0.1%). If not stated otherwise, cells were harvested after incubation for 16 h and subjected to SDS–PAGE and western blotting. The RNA interference experiment was performed with CSN5 stealth siRNA (#HSS116986) and stealth negative control siRNA (#12935–400) (Invitrogen), which were transfected at 10 nM into HCT116 cells using HiperFect (Qiagen) according to the manufacturer's protocols. Seventy-two hours after transfection, cells were harvested and subjected to SDS–PAGE and western blotting (see Supplementary Fig. 7 for all western blottings performed).
For further analysis, cell lysates were prepared by direct lysis with 2 × Sample buffer (65.8 mM Tris-HCl, pH 6.8, 2.1% SDS, 26.3% glycerol, 0.01% bromophenol blue and 20 mM DTT). Protein lysates from tumour powder were prepared in RIPA buffer (50 mM Tris-HCl pH 8.0, 150 mM NaCl, 1% Triton X-100, 2 mM EDTA, 0.5% sodium deoxycholate and 0.1% SDS) supplemented with 10 mM N-ethylmaleimide, protease inhibitor and phosphatase inhibitor cocktails (Roche Diagnostics). Cells from longer compound incubations were also lysed in RIPA buffer, which allows the protein concentration to be determined by BCA Protein Assay Kit (Pierce). Proteins were separated by SDS–PAGE using 4–20% Tris-Glycine Gels (Invitrogen) and subsequently transferred to polyvinylidene difluoride membranes using a Trans-Blot Turbo System (BioRad). […] Horseradish peroxidase-conjugated secondary antibodies (1:3,000) were purchased from Promega AG and bound antibody was detected by enhanced chemiluminescence (Pierce).

CC(C)n1nc(C(F)F)cc1C(=O)Nc1ccc([C@H]2[C@@H](O)CCCc3cncn32)c(-c2ccccc2)c1 [CSN5i-3, 3-(Difluoromethyl)-N-(6-((5S,6S)-6-hydroxy-6,7,8,9-tetrahydro-5H-imidazo[1,5-a]azepin-5-yl)-[1,1′-biphenyl]-3-yl)-1-isopropyl-1H-pyrazole-5-carboxamide]
degradation of Wee1, pIκB and Nrf2 (HCT116, 1 μM): did not affect their degradation | levels of SRMs Skp2, Fbxo22 and Fbxo30 (HCT116, 1 μM): degradation | levels of βTrCP, KEAP1, Fbxo3 and Fbxw7 (HCT116, 1 μM): remained stable | cullin-1 (Cul1) deneddylation in HCT116 cells (qualitative western blot analysis): accumulation of neddylated Cul1
